The values that follow come from paper PMC5617480 (Oncotarget, 2017).

Series [1] is described as follows: Solubility in water by UV-vis spectroscopy. The class given is physicochemical. The conditions noted are these: H2O. The protocol:
We next determined the solubility and stability of complexes 4, 5, and 6 in H2O and TBS buffer by UV-vis spectroscopy. […] TBS buffer (1% DMSO, 100 mM KCl, and 10 mM pH 7.35 Tris-HCl) was used to mimic normal physiological conditions.

In a further series the test system is HTG21 G4. As to the kind of experiment: Fluorescence titration (Stern-Volmer quenching). The conditions noted are these: HTG21 G4-DNA, compound 20 μM, 100 mM K+. The class given is binding, human. The method, then:
We asked whether chiral platinum(II) complexes 4–6 have the ability to bind to G-quadruplex DNA. To address this, FRET assays, CD spectroscopy, G4-FID assays, and fluorescence titration analysis were performed. […] For G4-HTG21, the ^G4DC50 values of complexes 4–6 were 1.23, 1.26 and 0.99 μM, respectively; while, for G4-Pu27, the ^G4DC50 values were 1.01, 0.89, and 0.82 μM, respectively. In addition, the ^ctDNADC50/^G4DC50 ratio of the HTG21 and Pu27 G4s treated with complexes 4–6 was in the range of 50.54-90.65 and 71.56-110.67 folds, respectively. To further evaluate the binding ability of complexes 4–6 to Pu27 and HTG21G4s, CD spectroscopy and fluorescence titration analysis were performed. […] The quenching ability of complexes 4–6 to HTG21 and Pu27 G4 DNA fluorescence can be quantitatively estimated by their respective quenching constant (Kq), which was derived from the Stern-Volmer quenching equation. […] Finally, the selective binding of complexes 4–6 towards G4 DNA was analyzed by FRET-melting assays. […] In contrast, the ΔTm value for the F32T+H20M duplex DNA in the presence of complexes 4–6 was 1.18, 1.34, and 0.78 °C under the same conditions (Figure 4A). Altogether, our data indicated complexes 4–6, especially complex 6, is the best binder to G4 DNA, which caused DNA complex displaying the highest thermodynamic stability. […]
Supplementary Figure 25: Fluorescence emission spectra of compounds (20 μM) in 100 mM K+ solution in the absence and
presence of human telomeric G-quadruplex DNA with 4 (A), 5 (B) and 6 (C), respectively.

A further series has as its system Pu27 G4. As to the kind of experiment: Fluorescence titration (Stern-Volmer quenching). The format is binding. The conditions noted are these: Pu27 G4-DNA, compound 20 μM, 100 mM K+. The protocol: We asked whether chiral platinum(II) complexes 4–6 have the ability to bind to G-quadruplex DNA. To address this, FRET assays, CD spectroscopy, G4-FID assays, and fluorescence titration analysis were performed. […] For G4-HTG21, the ^G4DC50 values of complexes 4–6 were 1.23, 1.26 and 0.99 μM, respectively; while, for G4-Pu27, the ^G4DC50 values were 1.01, 0.89, and 0.82 μM, respectively. In addition, the ^ctDNADC50/^G4DC50 ratio of the HTG21 and Pu27 G4s treated with complexes 4–6 was in the range of 50.54-90.65 and 71.56-110.67 folds, respectively. To further evaluate the binding ability of complexes 4–6 to Pu27 and HTG21G4s, CD spectroscopy and fluorescence titration analysis were performed. […] The quenching ability of complexes 4–6 to HTG21 and Pu27 G4 DNA fluorescence can be quantitatively estimated by their respective quenching constant (Kq), which was derived from the Stern-Volmer quenching equation. […] Finally, the selective binding of complexes 4–6 towards G4 DNA was analyzed by FRET-melting assays. […] In contrast, the ΔTm value for the F32T+H20M duplex DNA in the presence of complexes 4–6 was 1.18, 1.34, and 0.78 °C under the same conditions (Figure 4A). Altogether, our data indicated complexes 4–6, especially complex 6, is the best binder to G4 DNA, which caused DNA complex displaying the highest thermodynamic stability.
Supplementary Figure 26: Fluorescence emission spectra of compounds (20 μM) in 100 mM K+ solution in the absence and
presence of G-quadruplex Pu27 with 4 (A), 5 (B) and 6 (C), respectively. […]

The subject of series [2] is FPu18T (DNA, G4) AGGGTGGGGAGGGTGGGG
Put plainly: FRET melting. The conditions noted are these: 100 mM K+; 10 mM Tris-HCl, pH 7.35; 2.0 μM compound, 1.0 μM DNA.

Series [3] concerns F32T+H20M (DNA, duplex) CCGCATCTCTACATTCAAGAACTGGCATGCGG/GCCAGTTCTTGAATGTAGAG
As to the kind of experiment: FRET melting. The conditions noted are these: 100 mM K+; 10 mM Tris-HCl, pH 7.35; 2.0 μM compound, 1.0 μM DNA.

Another series relates to BEL-7404 cells. Set-up: method as in earlier work. The conditions noted are these: BEL-7404, 48 h; ref [1]; cited from earlier work.
For another series, the system named is HeLa cells. More on the design: method as in earlier work. The conditions noted are these: 48 h, ref [1]; cited from earlier work.
Another series concerns Hep-G2 cells. Set-up: method as in earlier work. The conditions noted are these: Hep-G2, 48 h; ref [1]; cited from earlier work.
A further series relates to BEL-7402 cells. More on the design: method as in earlier work. The conditions noted are these: BEL-7402, 48 h; ref [1]; cited from earlier work.
Another series has as its system Pu22. More on the design: method as in earlier work. The conditions noted are these: ref [1], cited from earlier work; for ctDNADC50/Pu22DC50: FID selectivity ratio; for Pu22DC50: FID.
The next series concerns ds26. Set-up: method as in earlier work. The conditions noted are these: ref [1], cited from earlier work; for ctDNADC50/ds26DC50: FID selectivity ratio; for ds26DC50: FID.

For the compound cis-[PtCl2(S-(–)-FOA)] [complex 6], the solubility in water in series [1] amounted to 2000 µg/mL. In addition, in the series with HTG21 G4, the “Extent of quenching (%)” value was determined as 28.42% and the “Kq (quenching constant, Stern-Volmer)” value is listed as 4.65×10^4 L·mol–1. Also, in the series on Pu27 G4, the “Extent of quenching (%)” value is on record as 40.31% and the “Kq (quenching constant, Stern-Volmer)” value is reported as 1.38×10^5 L·mol–1.

As for `O=C(NC[C@@H](O)CO)c1cnc2c3c(cccc13)-c1ccccc1C2=O.[Cl-].[Cl-].[Pt+2]` [ligand 2, R-(+)-FOA], the values for the thermal shift (ΔTm) in [2] and in [3] were 16.66 °C and 1.34 °C, respectively. Also, the IC50 is 20.5 ± 0.1 µM in the series with BEL-7404 cells, 28.5 ± 0.3 µM with HeLa cells, 38.9 ± 1.3 µM in the series on Hep-G2 cells and 68.6 ± 0.8 µM in the series with BEL-7402 cells. For the same compound, in the series with Pu22, the ctDNADC50/Pu22DC50 was 0.69. Besides, the Pu22DC50 in the series with Pu22 was 57.62 µM. The ctDNADC50/ds26DC50 in the series with ds26 is listed as 2.77. In the series on ds26, the ds26DC50 was 14.41 µM.

With `O=C(NCC(O)CO)c1cnc2c3c(cccc13)-c1ccccc1C2=O.[Cl-].[Cl-].[Pt+2]` (racemic) [ligand 1, R/S-(±)-FOA], the ΔTm in series [2] is 19.15 °C; in series [3], 1.18 °C. The IC50 with BEL-7404 cells was 17.2 ± 0.1 µM; in the series with HeLa cells, 25.7 ± 2.2 µM; with Hep-G2 cells it was 32.9 ± 0.5 µM; in the series on BEL-7402 cells it was 30.4 ± 1.5 µM. Further, in the series with Pu22, the ctDNADC50/Pu22DC50 was 1.88. For the same compound, the Pu22DC50 with Pu22 is 33.97 µM. Also, in the series on ds26, the ctDNADC50/ds26DC50 is recorded as 5.31. Besides, the ds26DC50 in the series with ds26 is 12.05 µM.

`O=C(NC[C@H](O)CO)c1cnc2c3c(cccc13)-c1ccccc1C2=O.[Cl-].[Cl-].[Pt+2]` [ligand 3, S-(–)-FOA]: the ΔTm came to 23.01 °C in series [2] and 0.78 °C in series [3]. The IC50 was 15.4 ± 0.2 µM in the series with BEL-7404 cells, 22.9 ± 0.7 µM in the series on HeLa cells, 24.9 ± 0.4 µM in the series on Hep-G2 cells and 28.5 ± 2.4 µM in the series with BEL-7402 cells. In addition, the ctDNADC50/Pu22DC50 in the series with Pu22 is given as 3.49. The Pu22DC50 in the series with Pu22 is 25.75 µM. Moreover, the ctDNADC50/ds26DC50 in the series on ds26 was 11.40. In addition, in the series with ds26, the ds26DC50 was 7.88 µM.

With cis-[PtCl2(R/S-(±)-FOA)] [complex 4], the solubility in water in series [1] amounted to 680 µg/mL. Moreover, in the series with HTG21 G4, the “Extent of quenching (%)” value came to 27.34% and the “Kq (quenching constant, Stern-Volmer)” value is reported as 4.60×10^4 L·mol–1. Also, in the series with Pu27 G4, the “Extent of quenching (%)” value stood at 32.54% and the “Kq (quenching constant, Stern-Volmer)” value is recorded as 1.02×10^5 L·mol–1.

The compound cis-[PtCl2(R-(+)-FOA)] [complex 5] came in with a solubility in water in [1] of 1000 µg/mL. In addition, in the series on HTG21 G4, the “Extent of quenching (%)” value was 27.21% and the “Kq (quenching constant, Stern-Volmer)” value is 4.36×10^4 L·mol–1. Further, in the series with Pu27 G4, the “Extent of quenching (%)” value was 30.06% and the “Kq (quenching constant, Stern-Volmer)” value is 8.80×10^4 L·mol–1.

As a reminder, the ΔTm is the shift of the melting midpoint relative to a reference. Broadly, the IC50 is the concentration needed to halve the response being measured.
